From PubChem BioAssay (NCI)
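Growth conditions: 96-well plates. Treatment: test compound, 48 hours, 5 concentrations. Analysis: linear interpolation between bracketing concentrations; unreached endpoints set to highest concentration. GI50 marks 50% less growth. Definition used: TGI = concentration required for complete inhibition of growth.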

Experiments:
Experiment in all cases: growth of human tumour cells (NCI), 48 h
[1] = test system: NCI/ADR-RES ovarian
[2] = test system: RPMI-8226 leukemia
[3] = test system: MDA-MB-231 breast
[4] = test system: ACHN renal
[5] = test system: HT29 colon
[6] = test system: K-562 leukemia
[7] = test system: UO-31 renal
[8] = test system: MCF7 breast
[9] = test system: EKVX NSCLC
[10] = test system: HCT-116 colon
[11] = test system: NCI-H23 lung
[12] = test system: BT-549 breast
[13] = test system: 786-0 renal
[14] = test system: RXF 393 renal
[15] = test system: HOP-92 NSCLC
[16] = test system: UACC-62 melanoma
[17] = test system: SK-MEL-5 melanoma
[18] = test system: NCI-H226 lung
[19] = test system: MOLT-4 leukemia
[20] = test system: COLO 205 colon
[21] = test system: OVCAR-3 ovarian
[22] = test system: OVCAR-8 ovarian
[23] = test system: CCRF-CEM leukemia
[24] = test system: SW-620 colon
[25] = test system: CAKI-1 renal
[26] = test system: SF-268 CNS
[27] = test system: SN12C renal
[28] = test system: A498 renal
[29] = test system: LOX IMVI melanoma
[30] = test system: HS 578T breast
[31] = test system: MDA-MB-435
[32] = test system: HCT-15 colon
[33] = test system: M14 melanoma
[34] = test system: SK-MEL-28 melanoma
[35] = test system: SF-539 CNS
[36] = test system: A549 NSCLC
[37] = test system: NCI-H522 lung
[38] = test system: HL-60(TB) leukemia
[39] = test system: PC-3 prostate
[40] = test system: OVCAR-5 ovarian
[41] = test system: SNB-75 CNS
[42] = test system: T-47D breast
[43] = test system: SK-MEL-2 melanoma
[44] = test system: DU-145 prostate
[45] = test system: MDA-N
[46] = test system: OVCAR-4 ovarian
[47] = test system: SNB-19 CNS
[48] = test system: MALME-3M melanoma
[49] = test system: SR leukemia
[50] = test system: IGROV1 ovarian
[51] = test system: KM12 colon
[52] = test system: UACC-257 melanoma
[53] = test system: SF-295 CNS
[54] = test system: NCI-H460 lung
[55] = test system: HOP-62 NSCLC
[56] = test system: HCC-2998 colon
[57] = test system: TK-10 renal
[58] = test system: U251 CNS
[59] = test system: SK-OV-3 ovarian
[60] = test system: KM20L2 colon

## COc1cc(S(=O)(=O)Nc2ccc(-c3csc(N)n3)cc2)ccc1Cl
[1]
  TGI: 83.3 µM
[2]
  TGI: 65.1 µM
[3]
  TGI: 31.4 µM
[4]
  TGI: 32.8 µM
[5]
  TGI: 35.8 µM
[6]
  TGI: 44.3 µM
[7]
  TGI: 37.2 µM
[8]
  TGI: 29.9 µM
[9]
  TGI: 30.2 µM
[10]
  TGI: 29.7 µM
[11]
  TGI: 40.1 µM
[12]
  TGI: 43.1 µM
[13]
  TGI: 30 µM
[14]
  TGI: 33.8 µM
[15]
  TGI: 39.5 µM
[16]
  TGI: 30 µM
[17]
  TGI: 30.6 µM
[18]
  TGI: 77.5 µM
[19]
  TGI: 31.7 µM
[20]
  TGI: 33.6 µM
[21]
  TGI: 28.9 µM
[22]
  TGI: 40.7 µM
[23]
  TGI: 53.5 µM
[24]
  TGI: 58.5 µM
[25]
  TGI: 45 µM
[26]
  TGI: 76.6 µM
[27]
  TGI: 38.5 µM
[28]
  TGI: 59.2 µM
[29]
  TGI: 34.8 µM
[30]
  TGI: > 100 µM
[31]
  TGI: 46.9 µM
[32]
  TGI: 43.6 µM
[33]
  TGI: 35 µM
[34]
  TGI: 48.5 µM
[35]
  TGI: > 100 µM
[36]
  TGI: 39.6 µM
[37]
  TGI: 42.4 µM
[38]
  TGI: 43.6 µM
[39]
  TGI: 29.7 µM
[40]
  TGI: 40.4 µM
[41]
  TGI: 39.2 µM
[42]
  TGI: 23 µM
[43]
  TGI: 35 µM
[44]
  TGI: 32.4 µM
[45]
  TGI: 38.5 µM
[46]
  TGI: 27.9 µM
[47]
  TGI: 33.8 µM
[48]
  TGI: 31.4 µM
[49]
  TGI: 48.4 µM

## C[C@]12CC[C@H](O)C[C@H]1CC[C@@H]1[C@@H]2CC[C@]2(C)[C@@H](C3=CC(=O)OC3)[C@@H](O)C[C@]12O
[1]
  TGI: 3.9 µM
[50]
  TGI: 37.3 µM
[2]
  TGI: 8.07 µM
[3]
  TGI: 20.1 µM
[4]
  TGI: 1.82 µM
[5]
  TGI: 11 µM
[6]
  TGI: > 52.2 µM
[51]
  TGI: 18.2 µM
[52]
  TGI: 5.46 µM
[7]
  TGI: 2.26 µM
[8]
  TGI: 11.1 µM
[9]
  TGI: 2.78 µM
[10]
  TGI: 4.37 µM
[11]
  TGI: 2.47 µM
[12]
  TGI: 7.32 µM
[13]
  TGI: 2.36 µM
[14]
  TGI: 3.51 µM
[15]
  TGI: > 100 µM
[53]
  TGI: 10.9 µM
[16]
  TGI: 6.82 µM
[17]
  TGI: 3.2 µM
[18]
  TGI: 9.8 µM
[54]
  TGI: 1.72 µM
[19]
  TGI: 1.95 µM
[55]
  TGI: 2.48 µM
[20]
  TGI: 7.18 µM
[21]
  TGI: 1.73 µM
[22]
  TGI: 14.6 µM
[23]
  TGI: 2.42 µM
[24]
  TGI: 14.6 µM
[25]
  TGI: 3.15 µM
[26]
  TGI: 2.55 µM
[27]
  TGI: 3.25 µM
[28]
  TGI: 9.07 µM
[29]
  TGI: 12 µM
[30]
  TGI: > 21.8 µM
[31]
  TGI: 10.3 µM
[32]
  TGI: 7.21 µM
[33]
  TGI: 5.58 µM
[34]
  TGI: 25.6 µM
[56]
  TGI: 6.7 µM
[35]
  TGI: 2.28 µM
[57]
  TGI: 1.99 µM
[36]
  TGI: 1.65 µM
[37]
  TGI: 2.67 µM
[58]
  TGI: 5.08 µM
[38]
  TGI: 3.45 µM
[39]
  TGI: 3.1 µM
[40]
  TGI: 8.03 µM
[41]
  TGI: 16.7 µM
[42]
  TGI: > 40.7 µM
[43]
  TGI: 5.02 µM
[44]
  TGI: 2.71 µM
[45]
  TGI: 5.7 µM
[46]
  TGI: 3.16 µM
[47]
  TGI: 15.5 µM
[59]
  TGI: 6.73 µM
[48]
  TGI: 4.23 µM
[49]
  TGI: 3.63 µM

## COc1cccc(/C=N/[N-]C(N)=O)c1[O-].[Ni+2].[OH3+].c1ccc(-c2ccccn2)nc1
[50]
  TGI: > 100 µM
[2]
  TGI: > 100 µM
[4]
  TGI: > 100 µM
[5]
  TGI: > 100 µM
[6]
  TGI: > 100 µM
[51]
  TGI: > 100 µM
[52]
  TGI: > 100 µM
[7]
  TGI: > 100 µM
[9]
  TGI: > 100 µM
[10]
  TGI: > 100 µM
[11]
  TGI: > 100 µM
[14]
  TGI: > 100 µM
[15]
  TGI: 98.1 µM
[53]
  TGI: > 100 µM
[16]
  TGI: > 100 µM
[17]
  TGI: > 100 µM
[18]
  TGI: > 100 µM
[54]
  TGI: > 100 µM
[19]
  TGI: > 100 µM
[55]
  TGI: > 100 µM
[20]
  TGI: > 100 µM
[21]
  TGI: > 100 µM
[22]
  TGI: > 100 µM
[23]
  TGI: > 100 µM
[24]
  TGI: > 100 µM
[25]
  TGI: > 100 µM
[26]
  TGI: > 100 µM
[27]
  TGI: > 100 µM
[29]
  TGI: > 100 µM
[32]
  TGI: > 100 µM
[60]
  TGI: > 100 µM
[33]
  TGI: > 100 µM
[34]
  TGI: > 100 µM
[56]
  TGI: > 100 µM
[35]
  TGI: > 100 µM
[36]
  TGI: > 100 µM
[37]
  TGI: > 100 µM
[58]
  TGI: > 100 µM
[38]
  GI50: 66.9 µM
  TGI: > 100 µM
[40]
  TGI: > 100 µM
[41]
  TGI: > 100 µM
[43]
  TGI: > 100 µM
[46]
  TGI: > 100 µM
[59]
  TGI: > 100 µM
[48]
  TGI: > 100 µM
